This passage reports IC50 results from patent US11059832B2, “HPK1 inhibitors and methods of using same” (University Health Network, priority 2015, dated 2021).

Where only a bound is given, the exact number is not on record here.

T2 sequence (P06239 whole entry, species assumed): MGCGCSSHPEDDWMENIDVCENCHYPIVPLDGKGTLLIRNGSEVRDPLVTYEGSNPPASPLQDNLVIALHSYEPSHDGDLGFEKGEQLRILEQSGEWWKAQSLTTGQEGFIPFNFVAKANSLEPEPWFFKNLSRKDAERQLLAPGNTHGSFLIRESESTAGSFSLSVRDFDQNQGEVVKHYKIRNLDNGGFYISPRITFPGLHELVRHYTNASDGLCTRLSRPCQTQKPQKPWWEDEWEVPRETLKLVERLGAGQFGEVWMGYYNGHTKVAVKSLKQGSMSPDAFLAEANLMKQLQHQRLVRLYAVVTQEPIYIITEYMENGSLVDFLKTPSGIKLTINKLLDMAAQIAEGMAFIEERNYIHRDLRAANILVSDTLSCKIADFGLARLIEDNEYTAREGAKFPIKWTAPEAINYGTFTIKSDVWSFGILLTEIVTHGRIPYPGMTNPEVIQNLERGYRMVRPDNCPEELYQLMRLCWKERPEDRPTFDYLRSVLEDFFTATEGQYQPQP

In one test the target is T1, human HPK1 (MAP4K1) (Homo sapiens, UniProt Q92918).
T1 construct: human HPK1 (aa 1-346); purchased Invitrogen PV6355
T1 sequence (Q92918 1-346): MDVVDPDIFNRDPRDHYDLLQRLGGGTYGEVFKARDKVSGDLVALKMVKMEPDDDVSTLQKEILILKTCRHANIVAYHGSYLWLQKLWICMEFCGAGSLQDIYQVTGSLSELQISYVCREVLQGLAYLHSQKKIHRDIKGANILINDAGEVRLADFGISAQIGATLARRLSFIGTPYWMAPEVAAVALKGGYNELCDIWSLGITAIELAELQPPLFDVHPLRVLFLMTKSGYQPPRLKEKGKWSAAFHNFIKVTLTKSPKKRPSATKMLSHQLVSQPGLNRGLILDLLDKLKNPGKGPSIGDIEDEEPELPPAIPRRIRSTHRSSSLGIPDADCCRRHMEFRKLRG
The experiment in a line: HPK1 inhibition assay (indirect ELISA). The format is biochemical. The following applies: GST-HPK1 0.6 nM, 12 μM ATP; read-out: IC50 Range HPK1. On the procedure:
Active HPK1 (MAP4K1) was purchased as an N-terminal GST fusion of human HPK1 (aa 1-346) from Invitrogen (cat #PV6355). HPK1 activity was measured using an indirect ELISA detection system. GST-HPK1 (0.6 nM) was incubated in the presence of 12 μM ATP (Sigma cat #A7699), 5 mM MOPS (pH 7.2), 2.5 mM β-glycerol-phosphate, 5 mM MgCl2, 0.4 mM EDTA, 1 mM EGTA, 0.05 mM DTT, in a 96 well microtitre plate pre-coated with 0.5 μg/well bovine myelin basic protein (MBP) (Millipore, cat #13-110). The reaction was allowed to proceed for 30 min, followed by 5 washes of the plate with Wash Buffer (phosphate buffered saline supplemented with 0.2% Tween 20), and incubation for 30 min with a 1:3000 dilution of anti-phospho-threonine rabbit polyclonal antibody (Cell Signaling cat #9381). The plate was washed 5 times with wash buffer, incubated for 30 min in the presence of goat anti-rabbit horse radish peroxidase conjugate (BioRad cat #1721019, 1:3000 concentration), washed an additional 5 times with wash buffer, and incubated in the presence of TMB substrate (Sigma cat #T0440). The colorimetric reaction was allowed to continue for 5 min, followed by addition of stop solution (0.5 N H2SO4), and quantified by detection at 450 nm with a monochromatic plate reader (Molecular Devices M5).
Compound inhibition was determined at either a fixed concentration (10 μM) or at a variable inhibitor concentration (typically 50 μM to 0.1 μM in a 10 point dose response titration). Compounds were pre-incubated in the presence of enzyme for 15 min prior to addition of ATP and the activity remaining quantified using the above described activity assay. The % inhibition of a compound was determined using the following formula; % inhibition=100×(1−(experimental value−background value)/(high activity control−background value)). The IC50 value was determined using a non-linear 4 point logistic curve fit (XLfit4, IDBS) with the formula; (A+(B/(1+((x/C)^D)))), where A=background value, B=range, C=inflection point, D=curve fit parameter.
(An ELISA detects its analyte on a solid surface through an enzyme-linked reagent.)
`Cc1csc2[nH]c(=O)c(-c3nc4ccc(N5CCN(C)CC5)cc4[nH]3)c(NC3CCOCC3)c12` [Example A20, 3-methyl-5-(6-(4-methylpiperazin-1-yl)-1H-benzo[d]imidazol-2-yl)-4-((tetrahydro-2H-pyran-4-yl)amino)thieno[2,3-b]pyridin-6(7H)-one]: the concentration for half-maximal inhibition (IC50) (as a rule, the concentration needed to halve the response being measured) is above 0.5 µM.

On to `Cc1csc2[nH]c(=O)c(-c3nc4ccc(N5CCN(C)CC5)cc4[nH]3)c(NC3CCCC3)c12` [Example A19, 4-(cyclopentylamino)-3-methyl-5-(6-(4-methylpiperazin-1-yl)-1H-benzo[d]imidazol-2-yl)thieno[2,3-b]pyridin-6(7H)-one], for which the concentration for half-maximal inhibition (IC50) is 0.05 to 0.5 µM. Take `CN1CCN(c2ccc3nc(-c4c(NCc5ccccn5)c5cscc5[nH]c4=O)[nH]c3c2)CC1` [Example A28, 3-(6-(4-methylpiperazin-1-yl)-1H-benzo[d]imidazol-2-yl)-4-((pyridin-2-ylmethyl)amino)thieno[3,4-b]pyridin-2(1H)-one]: the concentration for half-maximal inhibition (IC50) is at most 0.05 µM. For `CN1CCN(c2ccc3nc(-c4c(NCCN5CCOCC5)c5cscc5[nH]c4=O)[nH]c3c2)CC1` [Example A26, 3-(6-(4-methylpiperazin-1-yl)-1H-benzo[d]imidazol-2-yl)-4-((2-morpholinoethyl)amino) thieno[3,4-b]pyridin-2(1H)-one], the IC50 was at most 0.05 µM. Same read-out and setting: next, `CN1CCN(c2ccc3nc(-c4c(N[C@@H]5CCCOC5)c5ccsc5[nH]c4=O)[nH]c3c2)CC1` [Example A77, (R)-5-(6-(4-methylpiperazin-1-yl)-1H-benzo[d]imidazol-2-yl)-4-((tetrahydro-2H-pyran-3-yl)amino)thieno[2,3-b]pyridin-6(7H)-one]: at most 0.05 µM; `CN1CCN(c2ccc3nc(-c4c(N[C@H]5CCOC5)c5ccsc5[nH]c4=O)[nH]c3c2)CC1` [Example A11, (S)-5-(6-(4-methylpiperazin-1-yl)-1H-benzo[d]imidazol-2-yl)-4-((tetrahydrofuran-3-yl)amino)thieno[2,3-b]pyridin-6(7H)-one]: at most 0.05 µM; `CC(C)[C@H](CO)Nc1c(-c2nc3ccc(N4CCN(C)CC4)cc3[nH]2)c(=O)[nH]c2sccc12` [Example A16, (R)-4-((1-hydroxy-3-methylbutan-2-yl)amino)-5-(6-(4-methylpiperazin-1-yl)-1H-benzo[d]imidazol-2-yl)thieno[2,3-b]pyridin-6(7H)-one]: at most 0.05 µM. As for `Cc1cc2c(N)c(-c3nc4ccc(N5CCN(C)CC5)cc4[nH]3)c(=O)[nH]c2s1` [Example A3, 4-amino-2-methyl-5-(6-(4-methylpiperazin-1-yl)-1H-benzo[d]imidazol-2-yl)thieno[2,3-b]pyridin-6(7H)-one], the IC50 was above 0.5 µM. In the case of `COCCNc1c(-c2nc3ccc(N4CCN(C)CC4)cc3[nH]2)c(=O)[nH]c2sccc12` [Example A74, 4-((2-methoxyethyl)amino)-5-(6-(4-methylpiperazin-1-yl)-1H-benzo[d]imidazol-2-yl)thieno[2,3-b]pyridin-6(7H)-one], the concentration for half-maximal inhibition (IC50) is at most 0.05 µM. Take `CN1CCN(c2ccc3nc(-c4c(N5CCOCC5)c5sccc5[nH]c4=O)[nH]c3c2)CC1` [Example A49, 6-(6-(4-methylpiperazin-1-yl)-1H-benzo[d]imidazol-2-yl)-7-morpholinothieno[3,2-b]pyridin-5(4H)-one]: the 50% inhibitory concentration (IC50) is above 0.5 µM. With `C[C@@H]1CN(c2ccc3nc(-c4c(N)c5ccsc5[nH]c4=O)[nH]c3c2)C[C@H](C)O1` [Example A76, 4-amino-5-(6-((2S,6R)-2,6-dimethylmorpholino)-1H-benzo[d]imidazol-2-yl)thieno[2,3-b]pyridin-6(7H)-one], the IC50 was at most 0.05 µM.

For the compound `CN1CCN(c2ccc3nc(-c4c(N[C@@H]5CCC[C@H]5O)c5cscc5[nH]c4=O)[nH]c3c2)CC1` [Example A75, 4-(((1R,2R)-2-hydroxycyclopentyl)amino)-3-(6-(4-methylpiperazin-1-yl)-1H-benzo[d]imidazol-2-yl)thieno[3,4-b]pyridin-2(1H)-one], the concentration for half-maximal inhibition (IC50) was at most 0.05 µM. Turning to `COc1csc2[nH]c(=O)c(-c3nc4ccc(N5CCN(C)CC5)cc4[nH]3)c(N)c12` [Example A5, 4-amino-3-methoxy-5-(6-(4-methylpiperazin-1-yl)-1H-benzo[d]imidazol-2-yl)thieno[2,3-b]pyridin-6(7H)-one], the 50% inhibitory concentration (IC50) was above 0.5 µM.

Take `CN1CCN(c2ccc3nc(-c4c(O)c5sccc5[nH]c4=O)[nH]c3c2)CC1` [Example A29, 7-hydroxy-6-(6-(4-methylpiperazin-1-yl)-1H-benzo[d]imidazol-2-yl)thieno[3,2-b]pyridin-5(4H)-one]: the half-maximal inhibitory concentration (IC50) was at most 0.05 µM. The same measure, in the same setting: next, `CCOc1csc2[nH]c(=O)c(-c3nc4ccc(N5CCN(C)CC5)cc4[nH]3)c(N)c12` [Example A6, 4-amino-3-ethoxy-5-(6-(4-methylpiperazin-1-yl)-1H-benzo[d]imidazol-2-yl)thieno[2,3-b]pyridin-6(7H)-one]: 0.05 to 0.5 µM; `CN1CCN(c2ccc3nc(-c4c(NC5CC5)c5sccc5[nH]c4=O)[nH]c3c2)CC1` [Example A63, 7-(cyclopropylamino)-6-(6-(4-methylpiperazin-1-yl)-1H-benzo[d]imidazol-2-yl)thieno[3,2-b]-pyridin-5(4H)-one 2,2,2-trifluroaceatate]: at most 0.05 µM; `CN1CCN(c2ccc3nc(-c4c(NC5CCOCC5)c5cscc5[nH]c4=O)[nH]c3c2)CC1` [Example A25, 3-(6-(4-methylpiperazin-1-yl)-1H-benzo[d]imidazol-2-yl)-4-((tetrahydro-2H-pyran-4-yl)amino)thieno[3,4-b]pyridin-2(1H)-one]: at most 0.05 µM. Regarding `Nc1c(-c2nc3cc(F)c(N4CCOCC4)cc3[nH]2)c(=O)[nH]c2sccc12` [Example A56, 4-amino-5-(5-fluoro-6-morpholino-1H-benzo[d]-imidazol-2-yl)-thieno-[2,3b]-pyridin-6(7H)-one], the IC50 is at most 0.05 µM.

Turning to `C[C@@H]1CN(c2ccc3nc(-c4c(NC5CCCC5)c5sccc5[nH]c4=O)[nH]c3c2)C[C@H](C)N1C` [Example A47, 7-(cyclopentylamino)-6-(6-(3r,5s)-rel-3,4,5-trimethylpiper-azin-1-yl)-1H-benzo[d]imidazol-2-yl)thieno[3,2-b]pyridin-5(4H)-one], the IC50 is at most 0.05 µM. As for `Cc1cc2[nH]c(=O)c(-c3nc4ccc(N5CCN(C)CC5)cc4[nH]3)c(N)c2s1` [Example A32, 7-amino-2-methyl-6-(6-(4-methylpiperazin-1-yl)-1H-benzo[d]imidazol-2-yl)thieno[3,2-b]pyridin-5(4H)-one], the half-inhibitory concentration (IC50) was above 0.5 µM.

As for `CN1CCN(C(=O)c2ccc3[nH]c(-c4c(N)c5ccsc5[nH]c4=O)nc3c2)CC1` [Example A60, 4-amino-5-(5-(4-methylpiperazine-1-carbonyl)-1H-benzo[d]imidazol-2-yl)thieno[2,3-b]-pyridin-6(7H)-one], the half-maximal inhibitory concentration (IC50) lay in the range of 0.05 to 0.5 µM. For `CN1CCN(c2ccc3nc(-c4c(N[C@H]5C[C@@H](O)C5)c5ccsc5[nH]c4=O)[nH]c3c2)CC1` [Example A12, 4-(((1s,3s)-3-hydroxycyclobutyl)amino)-5-(6-(4-methylpiperazin-1-yl)-1H-benzo[d]imidazol-2-yl)thieno[2,3-b]pyridin-6(7H)-one], the IC50 was at most 0.05 µM. On to `C[C@@H]1CN(c2ccc3nc(-c4c(N[C@H]5CCCC[C@H]5O)c5ccsc5[nH]c4=O)[nH]c3c2)C[C@H](C)O1` [Example A73], for which the 50% inhibitory concentration (IC50) was 0.05 to 0.5 µM. For `Nc1c(-c2nc3cc(C(=O)N4CCOCC4)ccc3[nH]2)c(=O)[nH]c2sccc12` [Example A62, 4-amino-5-(5-(morpho-line-4-carbonyl)-1H-benzo-[d]imidazol-2-yl)thieno[2,3-b]pyridin-6(7H)-one], the IC50 lay within 0.05 to 0.5 µM.

The next test concerns the target T2, LCK (Homo sapiens, UniProt P06239).
T2 construct: purchased Invitrogen P3043
Description: LCK inhibition, FRET based Z'-LYTE Kinase Assay. It is filed as biochemical. As to conditions: 25 nM LCK, 180 μM ATP; read-out: IC50 Range Lck. On the procedure:
FLT3 and LCK compound inhibition were determined using FRET based Z′-LYTE Kinase Assay Kit with Tyrosine 2 peptide as the substrate (Invitrogen cat #PV3191). […] The % inhibition values were determined according to the manufacturer's directions and IC50 values were obtained using a non-linear 4 point logistic curve fit (XLfit4, IDBS).
Regarding `COc1csc2[nH]c(=O)c(-c3nc4ccc(N5CCN(C)CC5)cc4[nH]3)c(N)c12` [Example A5, 4-amino-3-methoxy-5-(6-(4-methylpiperazin-1-yl)-1H-benzo[d]imidazol-2-yl)thieno[2,3-b]pyridin-6(7H)-one], the IC50 is above 0.5 µM. As to `CN1CCN(c2ccc3nc(-c4c(O)c5sccc5[nH]c4=O)[nH]c3c2)CC1` [Example A29, 7-hydroxy-6-(6-(4-methylpiperazin-1-yl)-1H-benzo[d]imidazol-2-yl)thieno[3,2-b]pyridin-5(4H)-one], the IC50 lay in the range of 0.05 to 0.5 µM. Consider `Cc1cc2[nH]c(=O)c(-c3nc4ccc(N5CCN(C)CC5)cc4[nH]3)c(N)c2s1` [Example A32, 7-amino-2-methyl-6-(6-(4-methylpiperazin-1-yl)-1H-benzo[d]imidazol-2-yl)thieno[3,2-b]pyridin-5(4H)-one], for which the 50% inhibitory concentration (IC50) is at most 0.05 µM.

For the compound `CN1CCN(C(=O)c2ccc3[nH]c(-c4c(N)c5ccsc5[nH]c4=O)nc3c2)CC1` [Example A60, 4-amino-5-(5-(4-methylpiperazine-1-carbonyl)-1H-benzo[d]imidazol-2-yl)thieno[2,3-b]-pyridin-6(7H)-one], the IC50 lay in the range of 0.05 to 0.5 µM.
